Laboratory results published in ChEMBL document CHEMBL1287767, “Experimental solubility profiling of marketed CNS drugs, exploring solubility limit of CNS discovery candidate” (Bioorg Med Chem Lett, 2010).
In brackets after ≈: the same amount, converted by molar mass.

Columns and labels:
[1] = Solubility of the compound in 0.1 M phosphate buffer at 600 uM at pH 7.4 after 24 hrs by LC/MS/MS analysis; settings: for solubility at 24 h, 600 µM: pH 7.4
[2] = Solubility of the compound in water; assay type: physicochemical
[3] = Solubility of the compound at pH 7.95; assay type: physicochemical; settings: buffer
[4] = Solubility of the compound in water at pH 7; assay type: physicochemical
[5] = Solubility of the compound at pH 7.4; assay type: physicochemical; settings: buffer
[6] = Solubility of the compound in PBS at pH 7.4; assay type: physicochemical; settings: buffer

SMILES | solubility at 24 h, 600 µM ([1]; 0.1 M phosphate buffer) | also measured
CC1(C)O[C@@H]2[C@@H](CO[C@@]3(COS(N)(=O)=O)OC(C)(C)O[C@@H]23)O1 [TOPIRAMATE] | > 500 µM | solubility [2]: 9800 µg/mL
O=C(c1ccccc1)c1ccc2n1CCC2C(=O)O (stereo unspecified) [KETOROLAC] | > 459 µM | 
CCN(CC)C(=O)C1(c2ccccc2)CC1CN (stereo unspecified) | > 500 µM | 
COCC1CN=C(c2ccccc2Cl)c2cc(Br)ccc2N1C (stereo unspecified) [METACLAZEPAM] | 3.52 µM (≈ 1.39 µg/mL) | 
OCCOCCN1CCN(C2=Nc3ccccc3Sc3ccccc32)CC1 [QUETIAPINE] |  | solubility at 24 h, 600 µM ([1]; buffer): 310 µM (≈ 119 µg/mL)
COC(=O)C(c1ccccc1)C1CCCCN1 (stereo unspecified) [METHYLPHENIDATE] | 411 µM (≈ 95.9 µg/mL) | 
CCN[C@@H](C)Cc1cccc(C(F)(F)F)c1 [DEXFENFLURAMINE] | 500 µM (≈ 116 µg/mL) | 
Cc1ncc2n1-c1ccc(Cl)cc1C(c1ccccc1F)=NC2 [MIDAZOLAM] | 392 µM (≈ 128 µg/mL) | solubility [3]: 55 µg/mL (≈ 169 µM)
O=C1CCc2ccc(OCCCCN3CCN(c4cccc(Cl)c4Cl)CC3)cc2N1 [ARIPIPRAZOLE] | 1.03 µM (≈ 0.462 µg/mL) | 
OC[C@@H](O)CN1CCN(c2ccccc2)CC1 [LEVODROPROPIZINE] | > 500 µM | 
COC1=C(OC)C(=O)C(CCCCCCCCCCO)=C(C)C1=O [IDEBENONE] | 16 µM (≈ 5.42 µg/mL) | solubility [2]: 23.6 µM
NC(=O)OCC(COC(N)=O)c1ccccc1 [FELBAMATE] | > 500 µM | 
CC(N)Cc1ccccc1 (stereo unspecified) [AMPHETAMINE] | > 500 µM | 
O=C1CN=C(c2ccccn2)c2cc(Br)ccc2N1 [BROMAZEPAM] | 334 µM (≈ 106 µg/mL) | 
O=C(O)C1N=C(c2ccccc2)c2cc(Cl)ccc2NC1=O (stereo unspecified) [CLORAZEPIC ACID] | > 495 µM | 
NC(=O)CCC/N=C(\c1ccc(Cl)cc1)c1cc(F)ccc1O [PROGABIDE] | 55.2 µM (≈ 18.5 µg/mL) | 
CNS(=O)(=O)CCc1ccc2[nH]cc(C3CCN(C)CC3)c2c1 | > 500 µM | 
Cc1nnc2n1-c1ccc(Cl)cc1C(c1ccccc1)=NC2 [ALPRAZOLAM] | 213 µM (≈ 65.8 µg/mL) | solubility [4]: 40 µg/mL (≈ 130 µM)
CN(C)CCC[C@@]1(c2ccc(F)cc2)OCc2cc(C#N)ccc21 [ESCITALOPRAM] | > 500 µM | 
NC(=O)N1c2ccccc2C=Cc2ccccc21 [CARBAMAZEPINE] | > 490 µM | 
Cc1nc2n(c(=O)c1CCN1CCC(c3noc4cc(F)ccc34)CC1)CCCC2 [RISPERIDONE] | > 444 µM | 

SMILES | solubility at 24 h, 600 µM ([1]; 0.1 M phosphate buffer) | also measured
CN1CCN(C2=Nc3cc(Cl)ccc3Nc3ccccc32)CC1 [CLOZAPINE] | > 420 µM | 
CCCCCc1cc(O)c2c(c1)OC(C)(C)[C@@H]1CCC(C)=C[C@@H]21 [DRONABINOL] | > 500 µM | 
CN1C(=O)CN=C(c2ccccc2F)c2cc([N+](=O)[O-])ccc21 [FLUNITRAZEPAM] | 54 µM (≈ 16.9 µg/mL) | 
CN1CCN2c3ncccc3Cc3ccccc3C2C1 (stereo unspecified) [MIRTAZAPINE] | > 500 µM | 
O=C1NCCN1CCN1CCC(c2cn(-c3ccc(F)cc3)c3ccc(Cl)cc23)CC1 [SERTINDOLE] | 18.1 µM (≈ 7.98 µg/mL) | 
O=C1CC2(CCCC2)CC(=O)N1CCCCN1CCN(c2ncccn2)CC1 [BUSPIRONE] | > 500 µM | 
CCOc1ccccc1OC(c1ccccc1)C1CNCCO1 (stereo unspecified) [REBOXETINE] | > 500 µM | 
CCCN(CCC)C(=O)Cc1c(-c2ccc(Cl)cc2)nc2ccc(Cl)cn12 [ALPIDEM] | 0.75 µM (≈ 0.303 µg/mL) | solubility [5]: 0.1 µM (≈ 0.0404 µg/mL)
Nc1c2c(nc3ccccc13)CCCC2 [TACRINE] |  | solubility at 24 h, 600 µM ([1]; buffer): > 500 µM; solubility [2]: 217 µg/mL
CN1C[C@H](C(=O)N[C@]2(C)O[C@@]3(O)[C@@H]4CCCN4C(=O)[C@H](Cc4ccccc4)N3C2=O)C[C@@H]2c3cccc4[nH]cc(c34)C[C@H]21 [DIHYDROERGOTAMINE] | 37 µM (≈ 21.6 µg/mL) | 
Oc1ccc2c(c1)[C@@]13CCCC[C@@]1(O)[C@@H](C2)N(CC1CCC1)CC3 [BUTORPHANOL] | > 500 µM | 
CCN1CCC[C@H]1CNC(=O)c1c(OC)ccc(Br)c1OC [REMOXIPRIDE] | > 500 µM | 
CCc1cc2c(s1)-n1c(C)nnc1CN=C2c1ccccc1Cl [ETIZOLAM] | > 480 µM | 
CC(C)Cc1ccc(C(C)C(=O)O)cc1 (stereo unspecified) [IBUPROFEN] |  | solubility at 24 h, 600 µM ([1]; buffer): > 500 µM; solubility [6]: 6020 µg/mL (≈ 29200 µM)
CCN1CCCC1CNC(=O)c1cc(S(=O)(=O)CC)c(N)cc1OC (stereo unspecified) [AMISULPRIDE] | > 500 µM | 
CNS(=O)(=O)Cc1ccc2[nH]cc(CCN(C)C)c2c1 | > 500 µM | 
NS(=O)(=O)Cc1noc2ccccc12 [ZONISAMIDE] | > 500 µM | 
CN[C@H]1CC[C@@H](c2ccc(Cl)c(Cl)c2)c2ccccc21 [SERTRALINE] |  | solubility ([1]; buffer, pH 7.4, 24 h, 600 µM): 350 µM (≈ 107 µg/mL)
O=C1CN=C(c2ccccc2Cl)c2cc([N+](=O)[O-])ccc2N1 [CLONAZEPAM] |  | solubility at 24 h, 600 µM ([1]; buffer): 30.2 µM (≈ 9.53 µg/mL); solubility [2]: < 100 µg/mL
O=C1Nc2ccc(Cl)cc2C(c2ccccc2Cl)=NC1O (stereo unspecified) [LORAZEPAM] |  | solubility at 24 h, 600 µM ([1]; buffer): 24 µM (≈ 7.71 µg/mL); solubility [2]: 80 µg/mL
Cc1nnc2n1-c1ccc(Cl)cc1C(c1ccccc1Cl)=NC2 [TRIAZOLAM] | 35.9 µM (≈ 12.3 µg/mL) | 
